Data as given in patent US6835382B2, “Ii peptide therapeutics to enhance antigen presentation” (University of Massachusetts, priority 1996, dated 2004).
Non-standard residues stand in square brackets, D forms with d. hArg = N=C(N)NCCCC[C@H](N)C(=O)O; Cit = NC(=O)NCCC[C@H](N)C(=O)O; Orn = NCCC[C@H](N)C(=O)O

Tested on: murine E^k MHC class II allele
Experiment: simultaneous assay, E^k allele (CH27 APC, TPc9.1 T hybridoma, THMCC82-103 or PGCC81-104)
Type: cell-based
In short: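 Read-out is [3H]TdR incorporation into HT-2 indicator cells exposed to supernatant from a 24 h primary culture. That culture combined mitomycin C-treated APC (5×10^6 cells/mL, 0.025 mg/mL mitomycin C, 20 min, 37° C), peptide, effector compound and T hybridoma, all added at once.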

[1] = Table 15, AE peptide 16 μM, supernatant 1:4
[2] = Table 14, AE peptide 64 μM, supernatant 1:4
[3] = Table 4, AE109 homolog 64 μM, supernatant 1:2
[4] = Table 7, AE peptide 64 μM, supernatant 1:4, normalized by a factor of 5
[5] = Table 16, AE peptide 4 μM, supernatant 1:8
[6] = Table 2, AE peptide 64 μM, 0.05 μM PGCC81-104, supernatant 1:2
[7] = Table 5, AE peptide 64 μM, supernatant 1:4, normalized to E^d by a factor of 10
[8] = Table 11, AE peptide 64 μM, supernatant 1:4
[9] = Table 9, AE peptide 64 μM, supernatant 1:4, normalized by a factor of 5
[10] = Table 8, AE peptide 4 μM (third), supernatant 1:4
[11] = Table 8, AE peptide 16 μM (second), supernatant 1:4
[12] = Table 8, AE peptide 64 μM (first), supernatant 1:4
[13] = Table 10, AE peptide 64 μM, supernatant 1:2 (first value)
[14] = Table 10, AE peptide 64 μM, supernatant 1:4 (second value)
[15] = Table 1, AE peptide 16 μM (second value), 0.075 μM THMCC82-103, supernatant 1:2
[16] = Table 1, AE peptide 64 μM (first value), 0.075 μM THMCC82-103, supernatant 1:2

Substance: Ac-LRLK HArg PK-NH2 [AE341]
- Times Baseline Response, E^k [1]: 42.4

Substance: Ac-ARNKNPK-NH2 [AE346]
- Times Baseline Response, E^k [1]: 1.8

Substance: Ac-LRLKyPK-NH2 [AE308]
- Times Baseline Response, E^k [2]: 45.5

Substance: Ac-Y N MKLPKSAK-NH2 [AE137]
- Times Baseline Response, E^k [3]: 0.7

Substance: Ac-LRMK H PK-NH2 (Ac-LRMKHPK-NH2) [AE228]
- Times Baseline Response, E^k [4]: 20.3

Substance: Ac-LRMK K PK-NH2 (Ac-LRMKKPK-NH2) [AE229]
- Times Baseline Response, E^k [4]: 16.2

Substance: Ac-LRMK Y PK-NH2 (Ac-LRMKYPK-NH2; not fully specified; printed as Ac-LRMK Y PK-NH2) [AE235]
- Times Baseline Response, E^k [4]: 21.8
- Times Baseline Response, E^k [2]: 56.6
- Times Baseline Response, E^k [1]: 47.7
- Times Baseline Response, E^k [5]: 8.4
- Times Baseline Response, E^k (Table 17, AE peptide 64 μM, supernatant 1:4): 26.8
- Times Baseline Response, E^k (Table 18, AE peptide 64 μM, supernatant 1:4): 56.6

Substance: Ac-LRMK HArg PK-NH2 (Ac-LRMK[hArg]PK-NH2; SMILES CSCC[C@H](NC(=O)[C@H](CCCNC(=N)N)NC(=O)[C@H](CC(C)C)NC(C)=O)C(=O)N[C@@H](CCCCN)C(=O)N[C@@H](CCCCNC(=N)N)C(=O)N1CCC[C@H]1C(=O)N[C@@H](CCCCN)C(N)=O) [AE227]
- Times Baseline Response, E^k [4]: 20.5
- Times Baseline Response, E^k [1]: 45.6

Substance: Ac-SLRMKLPKSAK-NH2 [AE155]
- Times Baseline Response, E^k [6]: 8.4

Substance: Ac-LR HArg KLPK-NH2 [AE197]
- Times Baseline Response, E^k [7]: 39.9
- Times Baseline Response, E^k [5]: 1.7

Substance: Ac-LRLKWPK-NH2 [AE309]
- Times Baseline Response, E^k [2]: 48.2
- Times Baseline Response, E^k [1]: 38.0
- Times Baseline Response, E^k [5]: 1.8

Substance: Ac-LR m KLPK-NH2 [AE162]
- Times Baseline Response, E^k [8]: 1.3

Substance: Ac-LRMKLP[Cit]-NH2 [AE241]
- Times Baseline Response, E^k [9]: 12.2
- Times Baseline Response, E^k [5]: 1.0

Substance: Ac-YRMKL hydrP KSAK-NH2 (Ac-YRMKL[hydrP]KSAK-NH2) [AE143]
- Times Baseline Response, E^k [10]: 0.98
- Times Baseline Response, E^k [11]: 1.5,
- Times Baseline Response, E^k [12]: 4.2,

Substance: Ac-Y F MKLPKSAK-NH2 [AE139]
- Times Baseline Response, E^k [3]: 1.5

Substance: Ac-LRMK Q PK-NH2 (Ac-LRMKQPK-NH2) [AE233]
- Times Baseline Response, E^k [4]: 17.0

Substance: Ac-Y D MKLPKSAK-NH2 [AE135]
- Times Baseline Response, E^k [3]: 1.0

Substance: Ac-YAMKLPKSAK-NH2 [AE121]
- Times Baseline Response, E^k [3]: 1.0
- Times Baseline Response, E^k [13]: 21.6
- Times Baseline Response, E^k [14]: 19.7

Substance: Ac-LRMKLP N-NH2 (Ac-LRMKLPN-NH2) [AE246]
- Times Baseline Response, E^k [9]: 16.4
- Times Baseline Response, E^k [5]: 1.0

Substance: Ac-ARMKNPK-NH2 [AE345]
- Times Baseline Response, E^k [1]: 4.8

Substance: Ac-Y[Orn]MKLPKSAK-NH2 [AE130]
- Times Baseline Response, E^k [3]: 1.1

Substance: Ac-L[Cit]NKLPK-NH2 [AE343]
- Times Baseline Response, E^k [1]: 2.9

Substance: Ac-Y L MKLPKSAK-NH2 [AE142]
- Times Baseline Response, E^k [3]: 1.0

Substance: Ac-YRMK-NH2 [AE117]
- Times Baseline Response, E^k [15]: 10.6
- Times Baseline Response, E^k [16]: 14.6

Substance: Ac-LRM k LPK-NH2 [AE163]
- Times Baseline Response, E^k [8]: 1.1

Substance: Ac-NLQLDSLRMKLPKSAK-NH2 [AE150]
- Times Baseline Response, E^k [6]: 0.8

Substance: Ac-DSLRMKLPKSAK-NH2 [AE154]
- Times Baseline Response, E^k [6]: 2.2

Substance: Ac-L[Cit]MKNPK-NH2 [AE342]
- Times Baseline Response, E^k [1]: 5.4

Substance: Ac-QLDSLRMKLPKSAK-NH2 [AE152]
- Times Baseline Response, E^k [6]: 0.4
- activity in simultaneous assay on E^k, in words (Tables 2 and 18): inhibition

Substance: Ac-LDSLRMKLPKSAK-NH2 [AE153]
- Times Baseline Response, E^k [6]: 1.4

Substance: Ac-LR (mL) KyPK-NH2 [AE304]
- Times Baseline Response, E^k [2]: 13.4

Substance: Ac-LRMK F PK-NH2 (Ac-LRMKFPK-NH2) [AE234]
- Times Baseline Response, E^k [4]: 16.6

Substance: Ac-LRNKNPK-NH2 [AE349]
- Times Baseline Response, E^k [1]: 6.1

Substance: Ac-LRMKLP F-NH2 (Ac-LRMKLPF-NH2) [AE248]
- Times Baseline Response, E^k [9]: 16.3
- Times Baseline Response, E^k [1]: 42.6

Substance: Ac-LRMK N PK-NH2 (Ac-LRMKNPK-NH2) [AE232]
- Times Baseline Response, E^k [4]: 8.9
- Times Baseline Response, E^k [1]: 15.5

Substance: Ac-LR (mL) KYPK-NH2 [AE303]
- Times Baseline Response, E^k [2]: 25.3

Substance: Ac-LRMKLPKPPP-NH2 [AE167]
- Times Baseline Response, E^k [16]: 3.4, n.d.

Substance: Ac-l RMKLPK-NH2 [AE160]
- Times Baseline Response, E^k [8]: 1.7

Substance: Ac-ARMKLPKSAK-NH2 [AE120]
- Times Baseline Response, E^k [13]: 36.8
- Times Baseline Response, E^k [14]: 34.9
- Times Baseline Response, E^k [1]: 4.8

Substance: YRMKLPKSAKPVSQMR [AE101]
- Times Baseline Response, E^k [15]: 0.8
- Times Baseline Response, E^k [16]: 1.0

Substance: Ac-Y[hArg]MKLPKSAK-NH2 [AE132]
- Times Baseline Response, E^k [3]: 5.5
- Times Baseline Response, E^k [5]: 2.2

Substance: Ac-YRMKLPKSAK-NH2 [AE109]
- Times Baseline Response, E^k [15]: 2.2
- Times Baseline Response, E^k [16]: 6.9
- Times Baseline Response, E^k [6]: 43.7
- Times Baseline Response, E^k [3]: 2.3
- Times Baseline Response, E^k [10]: 1.0
- Times Baseline Response, E^k [11]: 1.5,
- Times Baseline Response, E^k [12]: 4.3,
- Times Baseline Response, E^k [13]: 66.0
- Times Baseline Response, E^k [14]: 56.3

Substance: Ac-LR (mL) KYPk-NH2 [AE305]
- Times Baseline Response, E^k [2]: 26.8

Substance: Ac-LRMK Cit PK-NH2 (Ac-LRMK[Cit]PK-NH2; SMILES CSCC[C@H](NC(=O)[C@H](CCCNC(=N)N)NC(=O)[C@H](CC(C)C)NC(C)=O)C(=O)N[C@@H](CCCCN)C(=O)N[C@@H](CCCNC(N)=O)C(=O)N1CCC[C@H]1C(=O)N[C@@H](CCCCN)C(N)=O) [AE226]
- Times Baseline Response, E^k [4]: 9.0

Substance: Ac-Y Y MKLPKSAK-NH2 [AE140]
- Times Baseline Response, E^k [3]: 0.9

Substance: Ac-LRLKYPk-NH2 [AE307]
- Times Baseline Response, E^k [2]: 56.4

Substance: Ac-LR[Orn]KLPK-NH2 [AE195]
- Times Baseline Response, E^k [7]: 12.1
- Times Baseline Response, E^k [1]: 19.8

Substance: Ac-LRMK[Orn]PK-NH2 [AE225]
- Times Baseline Response, E^k [4]: 13.9

Substance: Ac-LR L KLPK-NH2 (Ac-LRLKLPK-NH2; not fully specified; printed as Ac-LR L KLPK-NH2) [AE206]
- Times Baseline Response, E^k [7]: 33.9
- Times Baseline Response, E^k [2]: 53.5
- Times Baseline Response, E^k [1]: 35.3
- Times Baseline Response, E^k [5]: 1.3

Substance: Ac-YRMKLP-NH2 [AE115]
- Times Baseline Response, E^k [15]: 3.8
- Times Baseline Response, E^k [16]: 18.6

Substance: Ac-LRMK D PK-NH2 (Ac-LRMKDPK-NH2) [AE230]
- Times Baseline Response, E^k [4]: 1.1

Substance: Ac-LRNKNPF-NH2 [AE348]
- Times Baseline Response, E^k [1]: 6.3

Substance: Ac-Y E MKLPKSAK-NH2 [AE136]
- Times Baseline Response, E^k [3]: 0.7

Substance: Ac-LRMKLP k-NH2 [AE166]
- Times Baseline Response, E^k [8]: 3.4
- Times Baseline Response, E^k [2]: 40.4

Substance: Ac-LRMKLPKPPK-NH2 [AE168]
- Times Baseline Response, E^k [16]: 4.7, n.d.

Substance: Ac-LRMK E PK-NH2 (Ac-LRMKEPK-NH2) [AE231]
- Times Baseline Response, E^k [4]: 1.2

Substance: Ac-LRMK l PK-NH2 [AE164]
- Times Baseline Response, E^k [8]: 3.8
- Times Baseline Response, E^k [2]: 43.9

Substance: Ac-YRMKLPK-NH2 [AE113]
- Times Baseline Response, E^k [15]: 6.7
- Times Baseline Response, E^k [16]: 15.5
- Times Baseline Response, Ek (Table 3, AE peptide 64 μM, supernatant 1:4, values reduced relative to E^d by a factor of 10): 24.9

Substance: Ac-LRMK (mL) PK-NH2 [AE175]
- Times Baseline Response, E^k (Table 13, AE peptide 1 μM (fourth value), supernatant 1:4): 2.8
- Times Baseline Response, E^k (Table 13, AE peptide 4 μM (third value), supernatant 1:4): 6.5
- Times Baseline Response, E^k (Table 13, AE peptide 16 μM (second value), supernatant 1:4): 28.5
- Times Baseline Response, E^k (Table 13, AE peptide 64 μM (first value), supernatant 1:4): 59.0
- Times Baseline Response, E^k [2]: 58.0

Substance: Ac-Y H MKLPKSAK-NH2 [AE133]
- Times Baseline Response, E^k [3]: 0.8

Substance: Ac-Y M MKLPKSAK-NH2 [AE141]
- Times Baseline Response, E^k [3]: 1.3

Substance: Ac-LR (mL) KLPK-NH2 [AE302]
- Times Baseline Response, E^k [2]: 26.1

Substance: Ac-Y Q MKLPKSAK-NH2 [AE138]
- Times Baseline Response, E^k [3]: 0.8
